# From patent publication US11021711B2, “Genetic variations associated with drug resistance” (GENENTECH, Inc., priority 2008, dated 2021)
# Like-named read-outs stand apart in the source and are kept apart here. Square brackets hold non-standard residues; d marks the D form. Peptide text beside a SMILES is read from it. * marks the point of attachment. Dolaproine = CO[C@@H]([C@@H]1CCCN1)[C@@H](C)C(=O)O; Dil = CC[C@H](C)[C@H](NC)[C@@H](CC(=O)O)OC; X1 = C[C@@H](N*)[C@@H](O)c1ccccc1; NMeV = CN[C@H](C(=O)O)C(C)C
# Assays:
# [1] = test system: HER2-positive metastatic breast cancer
# Method: ABCC3 FISH analysis was performed on samples obtained from the T-DM1 Phase II (TDM4258G) trial to explore the effect of ABCC3 amplification on T-DM1 activity in HER2 amplified breast tumors. The TDM4258G trial is a multi-institutional, open-label, single-arm, Phase II study of T-DM1 administered by IV infusion to patients with HER2-positive metastatic breast cancer. The patients in the trial had shown prior progression on HER2-directed therapy. Formalin Fixed Paraffin Embedded (FFPE) archival tumor tissue samples from the clinical trial was obtained from the clinical investigation sites with appropriate IRB approval and patient consent.
# The FISH assay was performed on the clinical trial samples as described in Example 1. […] Those samples with ABCC3/CEP17 ratios of 1.8 and above are considered to have ABCC3 amplification.
# EFM-192A cells = test: Mitotic index (phospho histone H3) after ABCC3 or control siRNA, EFM-192A; format: cell-based, human; settings: for sensitivity (mitotic response) of ABCC3 siRNA transfected cells vs control siRNA (NTC) transfected cells: EFM-192A cells
# Method: High content screening assays were carried out on an Arrayscan VTI (Cellomics Inc, Pittsburgh, Pa.). Cells were transfected in 96 well format using siRNA “Smartpool” oligonucleotides purchased from Dharmacon Inc and Oligofectamine transfection reagents. To prioritize genes for functional studies, 2-sided Wilcoxon rank sum tests using the R programming language (http://www.r-project.org) were done to identify genes with a significant difference in gene expression in cell lines with more than 4 copies compared to those with less than 4 copies of the 17q21.3 amplicon. This analysis combined with availability of reagents for RNAi experiments led to the selection of the following 24 genes for functional studies in the EFM-192A cell line: ABCC3, COL1A1, CROP, EAP, EPN3, FLJ13855, F1120920, HOXB7, LOC201191, ITGB3, KIAA0924, KPNB1, LOC400604, LOC81558, MGC11242, MGC15396, NDP52, PDK2, PHB, PP1R9B, SLC35B1, SPOP, TOB1, WNT3. Follow-up studies with ABCC3 siRNA were conducted in the additional cell lines ZR75-30, MDAMB-453 and HCC-1428. […] After 48 hours or 72 hours incubation at 37 C, cells were fixed in 3.7% formaldehyde and permeabilized in 0.1% Triton X-100, followed by labeling with a 1:500 dilution of anti-phospho histone H3 (pH3, Upstate) and subsequent 1:250 dilution of Alexa-fluor 488 (Molecular probes) Goat anti-rabbit secondary antibody. Cells were counterstained with Hoechst-33258 to allow identification of nuclei and the percentage of cells positive for nuclear pH3 immunofluorescence, also known as the Mitotic Index (30), was then quantitated for at least 1000 cells per well using Cellomics Target Activation software.
# (§1) Phosphorylation at Ser10 of histone H3 is tightly correlated with chromosome condensation during M phase, and the percentage of cells that are positive for pH3 staining, or mitotic index, can be determined through an immunofluorescence assay.
# EFM19 = test: Celltiter-Glo Luminescent Cell Viability Assay, EFM19; format: cell-based; settings: Homo sapiens, EFM-19; EFM19, 72 hours; read-out: classification in the bioinformatic analysis (IC50 cell viability), paclitaxel
# Method: (§2) For MMAE and paclitaxel IC50 determination, cells were plated in quadruplicate at a density of 3000 cells per well in 384-well plates in normal growth medium and allowed to adhere overnight. Paclitaxel (Sigma) or MMAE (Seattle Genetics, Seattle, Wash.) were added in 10 concentrations based on a three-fold dilution series (1 μmol/L maximal paclitaxel or 0.1 μmol/L maximal for MMAE).
# (§3) Cell viability was measured 72 hours later using the Celltiter-Glo Luminescent Cell Viability Assay (Promega, Madison, Wis.). The concentration of drug resulting in the 50% inhibition of cell viability (IC50) was calculated from a four-parameter curve analysis (XLfit, 1DSS software) and was determined from a minimum of three experiments. […] FIG. 6 provides examples of representative cell viability experiments for six cell lines. Cell lines EFM192A, NDAMB361, and BT474 were classified as resistant to each agent in the bioinformatic analysis. AU565, EFM19, and MDAMB468 were classified as sensitive. IC50 values from fitted curves are shown in the charts to the right of each graph.
# BT474 = test: Celltiter-Glo Luminescent Cell Viability Assay, BT474; format: cell-based, human; settings: BT474, 72 hours
# Method: as §2, §3
# [2] = test system: ABCC3-overexpressing EVSA-T cells; test: ATP-based luminescence viability assay, ABCC3-overexpressing EVSA-T clones; format: cell-based, human; settings: for EC50: three day assay, read-out: EC50 (concentration that resulted in half-maximal response); for inhibition of cell growth compared to vector-alone control stable cell line: all three overexpressing cell lines, ATP-based luminescence assay (FIG. 5)
# Text: (§4) The control cell line in FIG. 5 is in fact a clone of EVSA-T derived after transfection with an empty vector and in the particular experiment shown achieved an IC50.
# (§5) For ABCC3 overexpression experiments a full length ABCC3 cDNA cloned in the CMV promoter containing vector pCMV5 (Invitrogen, Carlsbad, Calif.) was verified by sequencing the entire coding sequence. The construct was transfected into EVSA-T cells and stable clones were selected by growth in lmg/ml geneticin (Invitrogen Carlsbad, Calif.). Overexpression of ABCC3 in stable clones was confirmed by qRT-PCR on cDNA derived from lines containing pCMV5-ABCC3, pCMV5 vector alone, or the parental EVSA-T strain. All stable cell lines described in this report were determined in qRT-PCR experiments to express at least 25-35× more ABCC3 transcript than vector control lines or the parental cell line.
# (§6) Three independently derived lines were confirmed to overexpress ABCC3 transcripts and screened for in vitro sensitivity to paclitaxel and MMAE using an ATP-based luminescence assay. […] The EC50 for the vector control treated with paclitaxel was 0.2 nM while the EC50 values for the ABCC3-expressing lines were 5 nM, 10 nM, and 80 nM, respectively.
# EVSA-T cells were stably transfected with an ABCC3 containing plasmid where ABCC3 is expressed at high levels from a cytomegalovirus (CMV) promoter. Overexpression of ABCC3 was confirmed by qRT-PCR.
# ZR75-30 = test: Mitotic index (phospho histone H3) after ABCC3 or control siRNA, ZR75-30; format: cell-based, human; settings: ZR75-30 (ABCC3 amplified), drug-treated cells
# Method: (§7) High content screening assays were carried out on an Arrayscan VTI (Cellomics Inc, Pittsburgh, Pa.). Cells were transfected in 96 well format using siRNA “Smartpool” oligonucleotides purchased from Dharmacon Inc and Oligofectamine transfection reagents. To prioritize genes for functional studies, 2-sided Wilcoxon rank sum tests using the R programming language (http://www.r-project.org) were done to identify genes with a significant difference in gene expression in cell lines with more than 4 copies compared to those with less than 4 copies of the 17q21.3 amplicon. […] Cells were counterstained with Hoechst-33258 to allow identification of nuclei and the percentage of cells positive for nuclear pH3 immunofluorescence, also known as the Mitotic Index (30), was then quantitated for at least 1000 cells per well using Cellomics Target Activation software.
# as §1, with “An RNA interference strategy was used to identify the gene responsible for mediating resistance to taxanes and auristatins in amplified cell lines. […] Phosphorylation” for “Phosphorylation”, “assay. […]” for “assay.”
# HCC-1428 = test: Mitotic index (phospho histone H3) after ABCC3 or control siRNA, HCC-1428; format: cell-based, human; settings: HCC-1428 (non-amplified), drug-treated cells
# Method: as §7
# as §1, with “An RNA interference strategy was used to identify the gene responsible for mediating resistance to taxanes and auristatins in amplified cell lines. […] Phosphorylation” for “Phosphorylation”, “assay. […]” for “assay.”
# AU565 = test: Celltiter-Glo Luminescent Cell Viability Assay, AU565; format: cell-based; settings: Homo sapiens; AU565, 72 hours; read-out: classification in the bioinformatic analysis (IC50 cell viability), paclitaxel
# Method: as §2, §3
# NDAMB361 = test: Celltiter-Glo Luminescent Cell Viability Assay, NDAMB361; format: cell-based, human; settings: NDAMB361, 72 hours
# Method: as §2, §3
# MDA-MB-453 = test: Mitotic index (phospho histone H3) after ABCC3 or control siRNA, MDA-MB-453; format: cell-based, human; settings: MDA-MB-453 (non-amplified), drug-treated cells
# Method: as §7
# as §1, with “An RNA interference strategy was used to identify the gene responsible for mediating resistance to taxanes and auristatins in amplified cell lines. […] Phosphorylation” for “Phosphorylation”, “assay. […]” for “assay.”
# EFM192A = test: Celltiter-Glo Luminescent Cell Viability Assay, EFM192A; format: cell-based, human; settings: 72 hours
# Method: as §2, §3
# MDAMB468 = test: Celltiter-Glo Luminescent Cell Viability Assay, MDAMB468; format: cell-based; settings: Homo sapiens, MDA-MB-468; MDAMB468, 72 hours; read-out: classification in the bioinformatic analysis (IC50 cell viability), paclitaxel
# Method: as §2, §3
# [3] = test system: EVSA-T cells (empty vector control clone); test: ATP-based luminescence viability assay, EVSA-T vector control line; format: cell-based, human; settings: three day assay, read-out: EC50 (concentration that resulted in half-maximal response)
# Text: as §4, §5, §6
# [4] = read-out: classification in the bioinformatic analysis (IC50 cell viability), MMAE
molecule,measurement,setting,value
Trastuzumab-MCC-DM1 [T-DM1],patients who responded to treatment,"[1]; samples with amplification of ABCC3 (ABCC3/CEP17 ratio 1.8 and above), 2/5, IV infusion",40%
same,patients who responded to treatment,"[1]; samples with no amplification of ABCC3 (ABCC3/CEP17 below 1.8), 12/15, IV infusion",80%
same,sensitivity (mitotic response) of ABCC3 siRNA transfected cells vs control siRNA (NTC) transfected cells,EFM-192A cells,more sensitive
CC(=O)O[C@H]1C(=O)[C@@]2(C)[C@H]([C@H](OC(=O)c3ccccc3)[C@]3(O)C[C@H](OC(=O)[C@H](O)[C@@H](NC(=O)c4ccccc4)c4ccccc4)C(C)=C1C3(C)C)[C@]1(OC(C)=O)CO[C@@H]1C[C@@H]2O [paclitaxel],IC50,EFM19,< 10 nM
same,"change in mitotic index, ABCC3 RNAi relative to non-targeting control siRNA","EFM-192A cells; EFM-192A (ABCC3 amplified), drug-treated cells",two to three fold increase
same,IC50,"BT474; Homo sapiens, BT-474, read-out: classification in the bioinformatic analysis (IC50 cell viability), paclitaxel",> 1000 nM
same,EC50,"[2]; Homo sapiens, EVSA-T, 72 h, first ABCC3-expressing EVSA-T line",5 nM
same,EC50,"[2]; Homo sapiens, EVSA-T, 72 h, second ABCC3-expressing EVSA-T line",10 nM
same,EC50,"[2]; Homo sapiens, EVSA-T, 72 h, third ABCC3-expressing EVSA-T line",80 nM
same,inhibition of cell growth compared to vector-alone control stable cell line,[2],markedly less inhibition of cell growth
same,"change in mitotic index, ABCC3 RNAi relative to non-targeting control siRNA",ZR75-30,two to three fold increase
same,"change in mitotic index, ABCC3 RNAi relative to non-targeting control siRNA",HCC-1428,did not appreciably alter
same,IC50,AU565,< 10 nM
same,IC50,"NDAMB361; Homo sapiens, read-out: classification in the bioinformatic analysis (IC50 cell viability), paclitaxel",> 1000 nM
same,"change in mitotic index, ABCC3 RNAi relative to non-targeting control siRNA",MDA-MB-453,did not appreciably alter
same,IC50,"EFM192A; Homo sapiens, EFM-192A, read-out: classification in the bioinformatic analysis (IC50 cell viability), paclitaxel",> 1000 nM
same,IC50,MDAMB468,< 10 nM
same,EC50,"[3]; Homo sapiens, 72 h",0.2 nM
COc1cc2cc(c1Cl)N(C)C(=O)C[C@H](OC(=O)[C@H](C)N(C)C(=O)CCS)[C@]1(C)O[C@H]1[C@H](C)[C@@H]1C[C@@](O)(NC(=O)O1)[C@H](OC)/C=C/C=C(\C)C2 [DM1],sensitivity (mitotic response) of ABCC3 siRNA transfected cells vs control siRNA (NTC) transfected cells,EFM-192A cells,more sensitive
same,sensitivity to free DM1 vs control cell line,"[2]; three ABCC3 overexpressing clones, standard cell viability assay (FIG. 7)",more resistant
"CC[C@H](C)[C@@H]([C@@H](CC(=O)N1CCC[C@H]1[C@H](OC)[C@@H](C)C(=O)N[C@H](C)[C@@H](O)c1ccccc1)OC)N(C)C(=O)[C@@H](NC(=O)[C@@H](NC)C(C)C)C(C)C [MMAE, monomethyl auristatin E] (H-[NMeV]V[Dil][Dolaproine]-X1)",IC50,BT474; [4],> 100 nM
same,inhibition of cell growth compared to vector-alone control stable cell line,[2],markedly less inhibition of cell growth
same,EC50,[2]; first ABCC3-expressing EVSA-T line,1.5 nM
same,EC50,[2]; second ABCC3-expressing EVSA-T line,12 nM
same,EC50,[2]; third ABCC3-expressing EVSA-T line,90 nM
same,IC50,NDAMB361; [4],> 100 nM
same,IC50,EFM192A; [4],> 100 nM
same,EC50,[3],0.05 nM
